From patent US20030088312A1, “Use of cladribine on a stent to prevent restenosis” (priority 2000, published 2003)

Tested on: human smooth muscle cells
Assay: Inhibition of PDGF-stimulated human smooth muscle cell proliferation (cell count, day 6)
Format: cell-based
Conditions: ratio of IC50 values, SMC vs EC
Method: To assess the ability of cladribine to prevent cell proliferation, human smooth muscle or endothelial cells (Clonetics, Walkersville, Md.) were seeded at a density of 2000 cells/cm^2 (approximately […] cells/well) into each well of 12-well plates and cultured with 1.5 ml of growth medium containing 5% fetal calf serum (FCS). After 24 hours, the growth medium was changed and fresh medium containing 10 ng/ml platelet-derived growth factor AB (PDGF AB; LIFE Technologies), as well as various concentrations of cladribine (0.001-10,000 nM) were added with triplicate wells. Medium was replaced with fresh cladribine-containing medium after 3 days. On day six, cells were detached by trypsinization to yield a cell suspension, lightly centrifuged to pellet and then counted manually using a Neubauer hemacytometer system. Clee viability was assessed by trypan blue exclusion.
Table 1 provides the percent inhibition of the various tested concentrations of cladribine on human smooth muscle and endothelial cells in culture. Cladribine produced a concentration-related decrease in the proliferation of both smooth muscle and endothelial cells in this model system. […]

In the case of `Nc1nc(Cl)nc2c1ncn2[C@H]1C[C@H](O)[C@@H](CO)O1` [Cladribine], the “potency as inhibitor of smooth muscle cells relative to endothelial cells” value is reported as “approximately twice as potent”.
